Measured values from PubChem BioAssay AID248 (DTP/NCI, 2004).
Several values for one entry are separate records, joined by “and”; a condition that tells them apart may be missing. Identical values can stand only once. Inconclusive results and toxic doses are left out.

Tested on: L1210 leukemia ip in BDF1 mice, survival T/C
Experiment: NCI In Vivo Anticancer Drug Screen. Data for tumor model L1210 Leukemia (intraperitoneal) in B6D2F1 (BDF1) mice
Conditions: higher = longer survival
Procedure, shortened: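 Ratio derived from survival: compound-dosed mice over vehicle-dosed mice, all bearing a transplantable tumor.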

[1] = endpoint: mean survival time, dose: 400.0 mg/kg/injection, schedule: Q01DX001 (ip), vehicle: other
[2] = endpoint: mean survival time, dose: 100.0 mg/kg/injection, schedule: Q04DX003 (ip), vehicle: saline with Tween-80
[3] = endpoint: mean survival time, dose: 200.0 mg/kg/injection, schedule: Q04DX003 (ip), vehicle: saline with Tween-80
[4] = endpoint: mean survival time, dose: 100.0 mg/kg/injection, schedule: Q01DX009 (ip), vehicle: saline
[5] = endpoint: mean survival time, dose: 200.0 mg/kg/injection, schedule: Q01DX009 (ip), vehicle: saline
[6] = endpoint: mean survival time, dose: 400.0 mg/kg/injection, schedule: Q01DX009 (ip), vehicle: saline
[7] = endpoint: mean survival time, dose: 100.0 mg/kg/injection, schedule: Q01DX001 (ip), vehicle: saline
[8] = endpoint: mean survival time, dose: 200.0 mg/kg/injection, schedule: Q01DX001 (ip), vehicle: saline
[9] = endpoint: mean survival time, dose: 400.0 mg/kg/injection, schedule: Q01DX001 (ip), vehicle: saline

## CCCCC(=O)NC(O)C(Cl)(Cl)C(C)Cl (stereo not given)
endpoint: mean survival time, dose: 50.0 mg/kg/injection, schedule: Q01DX001 (ip), vehicle: other
  T/C: 112 % of control
endpoint: mean survival time, dose: 100.0 mg/kg/injection, schedule: Q01DX001 (ip), vehicle: other
  T/C: 91 % of control
endpoint: mean survival time, dose: 200.0 mg/kg/injection, schedule: Q01DX001 (ip), vehicle: other
  T/C: 101 % of control
[1]
  T/C: 101 % of control

## CCOC(=O)c1cc2ccccc2n1-c1ccccc1
endpoint: mean survival time, dose: 100.0 mg/kg/injection, schedule: Q01DX009 (ip), vehicle: saline with Tween-80
  T/C: 111 % of control
endpoint: mean survival time, dose: 200.0 mg/kg/injection, schedule: Q01DX009 (ip), vehicle: saline with Tween-80
  T/C: 104 % of control
endpoint: mean survival time, dose: 400.0 mg/kg/injection, schedule: Q01DX009 (ip), vehicle: saline with Tween-80
  T/C: 104 % of control

## N/C(=N\O)c1ccc2ccc3cccnc3c2n1
[2]
  T/C: 102 % of control
[3]
  T/C: 87 % of control

## COc1ccc(OC)c(NC(=O)Nc2ccc(OC)cc2OC)c1
[4]
  T/C: 110 % of control
[5]
  T/C: 113 % of control
[6]
  T/C: 108 % of control

## CCOC(=O)CCCN(C(=O)OCc1ccccc1)N(C)C(=O)OCc1ccccc1
endpoint: mean survival time, dose: 25.0 mg/kg/injection, schedule: Q04DX003 (ip), vehicle: saline with Tween-80
  T/C: 104 % of control
endpoint: mean survival time, dose: 50.0 mg/kg/injection, schedule: Q04DX003 (ip), vehicle: saline with Tween-80
  T/C: 111 % of control
[2]
  T/C: 106 % of control
[3]
  T/C: 104 % of control
endpoint: mean survival time, dose: 400.0 mg/kg/injection, schedule: Q04DX003 (ip), vehicle: saline with Tween-80
  T/C: 101 % of control

## Cc1ncc(CO)c2c1OC(C)(C)OC2
endpoint: mean survival time, dose: 50.0 mg/kg/injection, schedule: Q01DX001 (ip), vehicle: saline
  T/C: 97 % of control
[7]
  T/C: 100 % of control
[8]
  T/C: 103 % of control
[9]
  T/C: 100 % of control

## Nc1nc(=O)n(C2CCCO2)cc1Br (stereo not given)
[7]
  T/C: 100 % of control
[8]
  T/C: 103 % of control
[9]
  T/C: 87 % of control

## CC(C)=CCNC(=O)NS(=O)(=O)c1ccc(Cl)cc1
endpoint: mean survival time, dose: 100.0 mg/kg/injection, schedule: Q04DX003 (ip), vehicle: Klucel (hydroxypropylcellulose) (HPC)
  T/C: 103 % of control
endpoint: mean survival time, dose: 200.0 mg/kg/injection, schedule: Q04DX003 (ip), vehicle: Klucel (hydroxypropylcellulose) (HPC)
  T/C: 103 % of control
endpoint: mean survival time, dose: 400.0 mg/kg/injection, schedule: Q04DX003 (ip), vehicle: Klucel (hydroxypropylcellulose) (HPC)
  T/C: 100 % of control

## Cc1cc(/C=C/C2=[N+](C)c3ccc(F)cc3C2(C)C)c(O)c2ncccc12
endpoint: mean survival time, dose: 100.0 mg/kg/injection, schedule: Q01DX001 (ip), vehicle: carboxymethylcellulose (CMC)
  T/C: 98 % of control
endpoint: mean survival time, dose: 200.0 mg/kg/injection, schedule: Q01DX001 (ip), vehicle: carboxymethylcellulose (CMC)
  T/C: 90 % of control
endpoint: mean survival time, dose: 400.0 mg/kg/injection, schedule: Q01DX001 (ip), vehicle: carboxymethylcellulose (CMC)
  T/C: 93 % of control

## COC(=O)C1CC(OC(C)=O)C(C(N)=O)C1 (stereo not given)
[4]
  T/C: 101 % of control
[5]
  T/C: 111 % of control
[6]
  T/C: 101 % of control

## COc1cc(C=Nc2ccc3c(c2)OCO3)ccc1OC(=O)c1ccccc1
endpoint: mean survival time, dose: 100.0 mg/kg/injection, schedule: Q04DX002 (ip), vehicle: saline with Tween-80
  T/C: 96 % of control
endpoint: mean survival time, dose: 200.0 mg/kg/injection, schedule: Q04DX002 (ip), vehicle: saline with Tween-80
  T/C: 100 % of control
endpoint: mean survival time, dose: 400.0 mg/kg/injection, schedule: Q04DX002 (ip), vehicle: saline with Tween-80
  T/C: 93 % of control

## C/C(=N\N=C(N)N)c1ccc(NC(=O)Nc2ccc(/C(C)=N/N=C(N)N)cc2)cc1
endpoint: mean survival time, dose: 10.0 mg/kg/injection, schedule: Q01DX009 (ip), vehicle: saline
  T/C: 109 % of control and 124 % of control
endpoint: mean survival time, dose: 18.0 mg/kg/injection, schedule: Q01DX009 (ip), vehicle: water
  T/C: 187 % of control
endpoint: mean survival time, dose: 20.0 mg/kg/injection, schedule: Q01DX005 (ip), vehicle: saline
  T/C: 157 % of control
endpoint: mean survival time, dose: 30.0 mg/kg/injection, schedule: Q01DX009 (ip), vehicle: carboxymethylcellulose (CMC)
  T/C: 152 % of control
endpoint: mean survival time, dose: 30.0 mg/kg/injection, schedule: Q01DX009 (ip), vehicle: water
  T/C: 188 % of control
endpoint: mean survival time, dose: 40.0 mg/kg/injection, schedule: Q01DX005 (ip), vehicle: saline
  T/C: 150 % of control
endpoint: mean survival time, dose: 40.0 mg/kg/injection, schedule: Q01DX009 (ip), vehicle: water
  T/C: 174 % of control
endpoint: mean survival time, dose: 50.0 mg/kg/injection, schedule: Q01DX009 (ip), vehicle: carboxymethylcellulose (CMC)
  T/C: 189 % of control
endpoint: mean survival time, dose: 50.0 mg/kg/injection, schedule: Q01DX009 (ip), vehicle: water
  T/C: 259 % of control
endpoint: mean survival time, dose: 65.0 mg/kg/injection, schedule: Q01DX009 (ip), vehicle: water
  T/C: 167 % of control
endpoint: mean survival time, dose: 80.0 mg/kg/injection, schedule: Q01DX005 (ip), vehicle: saline
  T/C: 177 % of control
endpoint: mean survival time, dose: 83.3 mg/kg/injection, schedule: Q01DX009 (ip), vehicle: carboxymethylcellulose (CMC)
  T/C: 257 % of control
endpoint: mean survival time, dose: 83.3 mg/kg/injection, schedule: Q01DX009 (ip), vehicle: water
  T/C: 243 % of control
endpoint: mean survival time, dose: 108.0 mg/kg/injection, schedule: Q01DX015 (ip), vehicle: saline
  T/C: 172 % of control
endpoint: mean survival time, dose: 160.0 mg/kg/injection, schedule: Q01DX005 (ip), vehicle: saline
  T/C: 226 % of control
endpoint: mean survival time, dose: 180.0 mg/kg/injection, schedule: Q01DX015 (ip), vehicle: saline
  T/C: 207 % of control
[1]
  T/C: 157 % of control
endpoint: mean survival time, dose: 600.0 mg/kg/injection, schedule: Q01DX001 (ip), vehicle: other
  T/C: 188 % of control
endpoint: median survival time, dose: 50.0 mg/kg/injection, schedule: Q01DX009 (ip), vehicle: saline
  T/C: 162 % of control
endpoint: median survival time, dose: 60.0 mg/kg/injection, schedule: Q03HX024 (ip), vehicle: water
  T/C: 228 % of control
endpoint: median survival time, dose: 75.0 mg/kg/injection, schedule: Q03HX024 (ip), vehicle: water
  T/C: 166 % of control
endpoint: median survival time, dose: 90.0 mg/kg/injection, schedule: Q03HX024 (ip), vehicle: water
  T/C: 284 % of control
endpoint: median survival time, dose: 100.0 mg/kg/injection, schedule: Q01DX009 (ip), vehicle: saline
  T/C: 215 % of control and 262 % of control
endpoint: median survival time, dose: 105.0 mg/kg/injection, schedule: Q03HX024 (ip), vehicle: water
  T/C: 168 % of control
endpoint: median survival time, dose: 120.0 mg/kg/injection, schedule: Q03HX024 (ip), vehicle: water
  T/C: 303 % of control
endpoint: median survival time, dose: 200.0 mg/kg/injection, schedule: Q01DX009 (ip), vehicle: saline
  T/C: 260 % of control and 312 % of control

## O=C1CC(CC(=O)C2CCCC2=O)CC(=O)N1 (stereo not given)
[7]
  T/C: 101 % of control
[8]
  T/C: 100 % of control
[9]
  T/C: 108 % of control

## O=S(=O)(C#Cc1ccccc1)c1ccccc1
endpoint: mean survival time, dose: 100.0 mg/kg/injection, schedule: Q04DX002 (ip), vehicle: Klucel (hydroxypropylcellulose) (HPC)
  T/C: 89 % of control

## Oc1c(Cl)cc(Cl)c(Cl)c1CN1CCOCC1
endpoint: mean survival time, dose: 55.0 mg/kg/injection, schedule: Q01DX Z (ip), vehicle: methylcellulose (MC)
  T/C: 98 % of control
endpoint: mean survival time, dose: 83.0 mg/kg/injection, schedule: Q01DX Z (ip), vehicle: methylcellulose (MC)
  T/C: 116 % of control
endpoint: mean survival time, dose: 125.0 mg/kg/injection, schedule: Q01DX Z (ip), vehicle: methylcellulose (MC)
  T/C: 104 % of control

## CSc1nc(N)nc2c1nnn2C1OC(CO)C(O)C1O (stereo not given)
[7]
  T/C: 105 % of control
[8]
  T/C: 105 % of control

## C[CH2][Pb]([CH2]C)([CH2]C)[N](C#N)C(=N)N
endpoint: mean survival time, dose: 25.0 mg/kg/injection, schedule: Q04DX002 (ip), vehicle: Klucel (hydroxypropylcellulose) (HPC)
  T/C: 97 % of control
endpoint: mean survival time, dose: 50.0 mg/kg/injection, schedule: Q04DX002 (ip), vehicle: Klucel (hydroxypropylcellulose) (HPC)
  T/C: 101 % of control

## CNC(=O)N(C)N=O
endpoint: mean survival time, dose: 10.0 mg/kg/injection, schedule: Q01DX Z (ip), vehicle: carboxymethylcellulose (CMC)
  T/C: 92 % of control
endpoint: mean survival time, dose: 75.0 mg/kg/injection, schedule: Q01DX Z (ip), vehicle: carboxymethylcellulose (CMC)
  T/C: 157 % of control and 168 % of control
endpoint: mean survival time, dose: 100.0 mg/kg/injection, schedule: Q01DX Z (ip), vehicle: carboxymethylcellulose (CMC)
  T/C: 155 % of control
endpoint: mean survival time, dose: 125.0 mg/kg/injection, schedule: Q01DX Z (ip), vehicle: carboxymethylcellulose (CMC)
  T/C: 101 % of control

## Cc1cc(Cl)c(Cl)cc1NC(=O)c1c(Br)c(Br)c(Br)c(Br)c1C(=O)O
endpoint: mean survival time, dose: 100.0 mg/kg/injection, schedule: Q01DX009 (ip), vehicle: Klucel (hydroxypropylcellulose) (HPC)
  T/C: 108 % of control
endpoint: mean survival time, dose: 200.0 mg/kg/injection, schedule: Q01DX009 (ip), vehicle: Klucel (hydroxypropylcellulose) (HPC)
  T/C: 96 % of control
endpoint: mean survival time, dose: 400.0 mg/kg/injection, schedule: Q01DX009 (ip), vehicle: Klucel (hydroxypropylcellulose) (HPC)
  T/C: 95 % of control
